Assay results: US8729224B2, “Melanocortin receptor-specific peptides for treatment of female sexual dysfunction” (Palatin Technologies, Inc., priority 2008, dated 2014)

Experiments:
[1] = biological target: T1, hMC4-R (Homo sapiens, UniProt P32245); assay: Competitive inhibition binding assay using NDP-α-MSH, MC4-R; conditions: for Ki: competitive studies using NDP-α-MSH, human recombinant receptor, average of studies
T1 construct: expressed in transfected cells; host or cells: HEK-293
Method: A competitive inhibition binding assay is performed using membrane homogenates prepared from HEK-293 cells that express recombinant hMC4-R, hMC3-R, or hMC5-R, and from B-16 mouse melanoma cells (containing endogenous MC1-R). In some instances, HEK-293 cells that express recombinant hMC1-R were employed. In the examples that follow, all MC3-R, MC4-R and MC5-R values are for human recombinant receptors. MC1-R values are for B-16 mouse melanoma cells, unless the heading is “hMC1-R”, in which case the value is for human recombinant MC1-R. Assays were performed in 96 well GF/B Millipore multiscreen filtration plates (MAFB NOB10) pre-coated with 0.5% bovine serum albumin (Fraction V). Membrane homogenates were incubated with 0.2 nM (for hMC4-R) 0.4 nM (for MC3-R and MC5-R) or 0.1 nM (for mouse B16 MC1-R or hMC1-R) [I^125]-NDP-α-MSH (Perkin Elmer) and increasing concentrations of cyclic peptides of the present invention in buffer containing 25 mM HEPES buffer (pH 7.5) with 100 mM NaCl, 2 mM CaCl2, 2 mM MgCl2, 0.3 mM 1,10-phenanthroline, and 0.2% bovine serum albumin. After incubation for 60 minutes at 37° C., the assay mixture was filtered and the membranes washed three times with ice-cold buffer. Filters were dried and counted in a gamma counter for bound radioactivity. […] Maximal specific binding (100%) was defined as the difference in radioactivity (cpm) bound to cell membranes in the absence and presence of 1 μM NDP-α-MSH. […] Ki values for cyclic peptides of the present invention were determined using Graph-Pad Prism® curve-fitting software. […]
Alternatively, a competitive inhibition binding assay was performed employing Eu-NDP-α-MSH (PerkinElmer Life Sciences catalog No. AD0225) with determination by time-resolved fluorometry (TRF) of the lanthanide chelate. […] The plates were incubated on a shaker for 15 minutes and read at 340 nm excitation and 615 nm emission wavelengths. […] Ki values were determined by curve-fitting with Graph-Pad Prism® software using a one-site fixed-slope competition binding model. […]

[2] = biological target: T1, hMC4-R; assay: Assay for agonist activity (cAMP accumulation in HEK-293 cells expressing hMC4-R); type: cell-based
Method: Accumulation of intracellular cAMP is examined as a measure of the ability of the cyclic peptides of the present invention to elicit a functional response in HEK-293 cells that express MC4-R. Confluent HEK-293 cells that express recombinant hMC4-R were detached from culture plates by incubation in enzyme-free cell dissociation buffer. Dispersed cells were suspended in Earle's Balanced Salt Solution containing 10 mM HEPES (pH 7.5), 1 mM MgCl2, 1 mM glutamine, 0.5% albumin and 0.3 mM 3-isobutyl-1-methyl-xanthine (IBMX), a phosphodiesterase inhibitor. The cells were plated in 96-well plates at a density of 0.5×10^5 cells per well and pre-incubated for 30 minutes. Cells were exposed for 1 hour at 37° C. to test cyclic peptides of the present invention dissolved in DMSO (final DMSO concentration of 1%) at a concentration range of 0.05-5000 nM in a total assay volume of 200 μL. NDP-α-MSH was used as the reference agonist. At the end of the incubation period, cells were disrupted by the addition of 50 μL of lysis buffer (cAMP EIA kit, Amersham) followed by vigorous pipetting. Levels of cAMP in the lysates were determined using a cAMP EIA kit (Amersham). Data analysis was performed by nonlinear regression analysis with Graph-Pad Prism® software. The maximum efficacies of the cyclic peptides of the present invention were compared to that achieved by the reference melanocortin agonist NDP-αMSH.

[3] = tested on: penile erection in male Sprague-Dawley rats; assay: Induction of penile erection in male rats; type: in vivo, rat; conditions: for observed spontaneous erections compared to vehicle controls: rat model
[4] = tested on: systolic blood pressure; conditions: rat, in vivo
Source text: In other studies, including comparisons of the same quantities of the cyclic peptide of Example 8.1 and bremelanotide by the same routes of administration, substantially similar results were obtained. […] In other studies, including comparisons of the same quantities of the cyclic peptide of Example 8.4 and bremelanotide by the same routes of administration, substantially similar results were obtained.

[5] = biological target: T2, MC1-R (B-16 mouse melanoma cells) (Mus musculus, UniProt Q01727); assay: Competitive inhibition binding assay using NDP-α-MSH, MC1-R; conditions: competitive studies using NDP-α-MSH
T2 construct: from B-16 mouse melanoma cells (containing endogenous MC1-R); endogenous in cells; host or cells: B-16 mouse melanoma cells
T2 sequence (Q01727 whole entry): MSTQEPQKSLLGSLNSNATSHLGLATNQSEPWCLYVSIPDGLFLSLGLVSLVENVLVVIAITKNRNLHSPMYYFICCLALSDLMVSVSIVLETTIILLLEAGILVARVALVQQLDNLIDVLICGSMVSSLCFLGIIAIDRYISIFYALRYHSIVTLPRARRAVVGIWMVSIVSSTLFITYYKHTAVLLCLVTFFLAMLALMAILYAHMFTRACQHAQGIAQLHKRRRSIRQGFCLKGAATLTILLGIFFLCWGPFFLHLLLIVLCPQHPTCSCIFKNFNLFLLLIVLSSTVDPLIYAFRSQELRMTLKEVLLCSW
Method: (§1) A competitive inhibition binding assay is performed using membrane homogenates prepared from HEK-293 cells that express recombinant hMC4-R, hMC3-R, or hMC5-R, and from B-16 mouse melanoma cells (containing endogenous MC1-R). In some instances, HEK-293 cells that express recombinant hMC1-R were employed. In the examples that follow, all MC3-R, MC4-R and MC5-R values are for human recombinant receptors. MC1-R values are for B-16 mouse melanoma cells, unless the heading is “hMC1-R”, in which case the value is for human recombinant MC1-R. Assays were performed in 96 well GF/B Millipore multiscreen filtration plates (MAFB NOB10) pre-coated with 0.5% bovine serum albumin (Fraction V). […] Filters were dried and counted in a gamma counter for bound radioactivity. […] Maximal specific binding (100%) was defined as the difference in radioactivity (cpm) bound to cell membranes in the absence and presence of 1 μM NDP-α-MSH. […] Ki values for cyclic peptides of the present invention were determined using Graph-Pad Prism® curve-fitting software. […]

[6] = biological target: T3, hMC3-R (Homo sapiens, UniProt P41968); assay: Competitive inhibition binding assay using NDP-α-MSH, MC3-R; conditions: competitive studies using NDP-α-MSH; human recombinant receptor
T3 construct: expressed in transfected cells; host or cells: HEK-293
T3 sequence (P41968 whole entry): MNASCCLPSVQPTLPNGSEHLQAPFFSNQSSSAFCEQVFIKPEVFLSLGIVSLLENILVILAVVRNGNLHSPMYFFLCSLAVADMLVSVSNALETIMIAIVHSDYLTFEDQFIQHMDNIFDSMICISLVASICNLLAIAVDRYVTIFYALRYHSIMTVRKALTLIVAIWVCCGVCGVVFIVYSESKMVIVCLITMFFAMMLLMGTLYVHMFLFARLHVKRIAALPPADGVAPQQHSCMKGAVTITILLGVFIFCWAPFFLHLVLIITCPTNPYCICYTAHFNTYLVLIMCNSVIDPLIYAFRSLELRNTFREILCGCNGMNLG
Method: as §1
(§2) Alternatively, a competitive inhibition binding assay was performed employing Eu-NDP-α-MSH (PerkinElmer Life Sciences catalog No. AD0225) with determination by time-resolved fluorometry (TRF) of the lanthanide chelate. […] The plates were incubated on a shaker for 15 minutes and read at 340 nm excitation and 615 nm emission wavelengths. […]

[7] = biological target: T4, hMC5-R (Homo sapiens, UniProt P33032); assay: Competitive inhibition binding assay using NDP-α-MSH, MC5-R; conditions: competitive studies using NDP-α-MSH; human recombinant receptor
T4 construct: expressed in transfected cells; host or cells: HEK-293
T4 sequence (P33032 whole entry): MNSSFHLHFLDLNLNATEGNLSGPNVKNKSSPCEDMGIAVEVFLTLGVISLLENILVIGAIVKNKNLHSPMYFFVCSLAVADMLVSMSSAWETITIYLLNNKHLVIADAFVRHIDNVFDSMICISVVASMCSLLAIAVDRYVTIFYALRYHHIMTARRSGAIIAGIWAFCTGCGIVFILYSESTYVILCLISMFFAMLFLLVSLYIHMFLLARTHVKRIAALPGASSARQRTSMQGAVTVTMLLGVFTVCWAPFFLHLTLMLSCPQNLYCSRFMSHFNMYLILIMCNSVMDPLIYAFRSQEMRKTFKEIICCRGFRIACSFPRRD
Method: as §1, §2

T1 sequence (P32245 whole entry): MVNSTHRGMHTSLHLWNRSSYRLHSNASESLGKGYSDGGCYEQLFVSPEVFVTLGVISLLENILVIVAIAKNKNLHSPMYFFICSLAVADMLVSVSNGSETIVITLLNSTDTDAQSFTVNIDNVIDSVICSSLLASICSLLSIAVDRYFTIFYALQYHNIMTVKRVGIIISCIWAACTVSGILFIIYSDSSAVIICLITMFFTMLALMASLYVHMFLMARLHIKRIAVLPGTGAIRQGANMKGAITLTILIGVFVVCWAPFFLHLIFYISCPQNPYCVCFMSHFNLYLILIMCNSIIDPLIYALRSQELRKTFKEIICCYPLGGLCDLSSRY

SMILES | receptor selectivity in binding ([1]; MC1-R, MC3-R, MC4-R and MC5-R binding compared) | functional status at MC4-R ([2]; functional studies) | penile erections per rat per hour compared to bremelanotide (companion studies) ([3]; 3.0 μmol/kg subcutaneous vs bremelanotide 1 μmol/kg IV) | observed spontaneous erections compared to vehicle controls ([3]; subcutaneous) | spontaneous erections per rat in one hour ([3]; subcutaneous, 0.3 mg/kg, n=7) | spontaneous erections per rat in one hour ([3]; subcutaneous, 1.0 mg/kg, n=7) | increase of systolic blood pressure compared to a dose of bremelanotide producing comparable penile erection results [4] | Ki [1] [nM] | Ki [5] [nM] | Ki [6] [nM] | Ki [7] [nM] | Emax ([2]; HEK293, NDP-α-MSH is 100%, read-out: intrinsic activity at MC4-R) [%] | EC50 ([2]; functional studies, cAMP, average of studies, read-out: EC50 at MC4-R) [nM] | penile erections per rat per hour compared to bremelanotide (companion studies) ([3]; 1 mg/kg subcutaneous vs bremelanotide 1 mg/kg IV) | spontaneous erections per rat in one hour ([3]; IV, 1 mg/kg, n=7, positive control)
CC(=O)N[C@@H](CCCNC(=N)N)C(=O)N[C@H]1CC(=O)NCCCC[C@@H](C(N)=O)NC(=O)[C@H](Cc2c[nH]c3ccccc23)NC(=O)[C@H](CCCNC(=N)N)NC(=O)[C@@H](Cc2ccccc2)NC(=O)[C@H](CCN)NC1=O [Example 8.1, Ac-Arg-cyclo(Asp-Dab-D-Phe-Arg-Trp-Lys)-NH2] | selective for MC4-R | agonist | same or higher penile erection results | statistically significant increase | 2.286±0.286 | 4.571±1.088 | less increase of systolic blood pressure |  |  |  |  |  |  |  | 
CC(=O)N[C@@H](CCCNC(=N)N)C(=O)N[C@H]1CCC(=O)NCCC[C@@H](C(N)=O)NC(=O)[C@H](Cc2c[nH]c3ccccc23)NC(=O)[C@H](CCCNC(=N)N)NC(=O)[C@@H](Cc2ccccc2)NC(=O)[C@H](CCN)NC1=O [Example 8.3, Ac-Arg-cyclo(Glu-Dab-D-Phe-Arg-Trp-Orn)-NH2] |  | agonist |  |  |  |  |  | 0.65 | 1 | 74 | 300 |  |  |  | 
CC(=O)N[C@@H](CCCNC(=N)N)C(=O)N[C@H]1CCC(=O)NCCC[C@@H](C(=O)O)NC(=O)[C@H](Cc2c[nH]c3ccccc23)NC(=O)[C@H](CCCNC(=N)N)NC(=O)[C@@H](Cc2ccccc2)NC(=O)[C@H](CCN)NC1=O [Example 8.4, Ac-Arg-cyclo(Glu-Dab-D-Phe-Arg-Trp-Orn)-OH] |  | agonist |  | statistically significant increase | 2.571±0.685 | 5.286±0.918 | less increase of systolic blood pressure | 8 | 4 | 410 | 2370 | 91 | 3 | same or higher penile erection results | 
CCCC[C@H](NC(C)=O)C(=O)N[C@H]1CC(=O)NCCCC[C@@H](C(=O)O)NC(=O)[C@H](Cc2c[nH]c3ccccc23)NC(=O)[C@H](CCCN=C(N)N)NC(=O)[C@@H](Cc2ccccc2)NC(=O)[C@H](Cc2cnc[nH]2)NC1=O [bremelanotide, Ac-Nle-cyclo(Asp-His-D-Phe-Arg-Trp-Lys)-OH, reference compound] |  |  |  |  |  |  |  |  |  |  |  |  |  |  | 4±0.535
